Laboratory results as given in US20100137170A1, “DUAL USE WELL TREATMENT COMPOSITION” (JACAM CHEMICALS, LLC, priority 2008, published 2010).

Experiment: accelerated −30° F. storage test (crystal formation)
Format: physicochemical
Conditions: 1.5% by volume in the Example composition
Procedure: Additional morpholine derivatives were also tested in lieu of the morpholine in the above table, at the same amount (1.5% by volume) and by the accelerated −30° F. storage test. These derivatives were N-methylmorpholine, N-ethylmorpholine, N-methylmorpholine oxide, and N-aminopropylmorpholine.
With `NCCCN1CCOCC1` [N-aminopropylmorpholine] the “result of accelerated storage test with derivative in lieu of morpholine” value (from here on “result of accelerated storage test”) was “satisfactory results”.
With `CN1CCOCC1` [N-methylmorpholine] the “result of accelerated storage test” value was “satisfactory results”.
For `C[N+]1([O-])CCOCC1` [N-methylmorpholine oxide], the “result of accelerated storage test” value was “satisfactory results”.
With `CCN1CCOCC1` [N-ethylmorpholine] the “result of accelerated storage test” value was “satisfactory results”.

Experiment: substitute ingredients in lieu of morpholine in THP/THPS-amino phosophono chelant compositions (crystal deposition)
Format: physicochemical
Conditions: ingredients employed alone and in various combinations in THP/THPS-amino phosophono chelant compositions
Source text: During the course of development of the present invention, a number of different ingredients were used in lieu of morpholine in THP/THPS-amino phosophono chelant compositions. None of these substitute materials were successful.
In the case of `[Na+].[OH-]` [sodium hydroxide], the “crystal deposition of product with ingredient used in lieu of morpholine” value (“crystal deposition of product” below) is reported as “prone to crystal deposition”.
With `N` [ammonium hydroxide] the “crystal deposition of product” value was “prone to crystal deposition”.
In the case of `CO` [methyl alcohol], the “crystal deposition of product” value is reported as “prone to crystal deposition”.
In the case of `CC(C)O` [isopropyl alcohol], the “crystal deposition of product” value is reported as “prone to crystal deposition”.
